Results taken from patent US20190330224A1, “ACC INHIBITORS AND USES THEREOF” (Gilead Apollo, LLC, priority 2015, published 2019).
In brackets after ≈: the same amount, converted by molar mass.

Columns and labels:
C. krusei ATCC 6258 = test: Anti-Fungal Activity Assay (broth microtiter MIC), C. krusei; type: cell-based, Candida krusei; conditions: Pichia kudriavzevii, ATCC6258, 48 h, 3 replicates; MIC recorded at 48 h; read-out: MIC C. krusei ATCC 6258
Experimental: (§1) Compounds of the present invention were evaluated in an Anti-Fungal Activity Assay. An exemplary procedure for the assay, which measures the susceptibility of various Candida species to anti-fungal compounds, follows. Compounds to be tested (including fluconazole and amphotericin B) were dissolved in DMSO to obtain a solution having a concentration of 1 mg/mL. […] All species were grown from frozen stock by directly plating on to freshly prepared Sabouraud Dextrose agar (BD, Difco) and incubated overnight in ambient air at 35° C. for 24 h. A direct suspension was prepared in RPMI 1640+MOPS (Lonza, Biowhittaker) by taking individual colonies from the overnight cultures using sterile swabs soaked in sterile saline. The concentration of the suspension was determined using pre-determined standard curves. […] Broth microtiter MIC challenge plates were prepared following CLSI guidelines (M27-A3, Vol. 28 No. 14). The original CLSI guidelines focused on reading Candida MICs after 48 h of incubation. As reading after only 24 h offers a clear advantage of patient care, QC limits are being established for all drugs at 24 h. That being said there are no known interpretive breakpoints for amphotericin B at 24 h and the current fluconazole interpretive breakpoints are based on a 48 h reading. The MIC breakpoints for the test compounds were recorded at 48 h, and for the soraphen the 24 h time-point was added. All MIC determinations were achieved by visually comparing the growth found in the antibiotic challenged wells to that of the growth control.

Human ACC2 = Human ACC2 (Homo sapiens, UniProt O00763); test: In vitro ACC2 inhibition assay (ADP-Glo), human ACC2; type: biochemical; conditions: 5 nM ACC2, 20 μM ATP, 20 μM acetyl-CoA
Sequence of Human ACC2 (O00763 whole entry): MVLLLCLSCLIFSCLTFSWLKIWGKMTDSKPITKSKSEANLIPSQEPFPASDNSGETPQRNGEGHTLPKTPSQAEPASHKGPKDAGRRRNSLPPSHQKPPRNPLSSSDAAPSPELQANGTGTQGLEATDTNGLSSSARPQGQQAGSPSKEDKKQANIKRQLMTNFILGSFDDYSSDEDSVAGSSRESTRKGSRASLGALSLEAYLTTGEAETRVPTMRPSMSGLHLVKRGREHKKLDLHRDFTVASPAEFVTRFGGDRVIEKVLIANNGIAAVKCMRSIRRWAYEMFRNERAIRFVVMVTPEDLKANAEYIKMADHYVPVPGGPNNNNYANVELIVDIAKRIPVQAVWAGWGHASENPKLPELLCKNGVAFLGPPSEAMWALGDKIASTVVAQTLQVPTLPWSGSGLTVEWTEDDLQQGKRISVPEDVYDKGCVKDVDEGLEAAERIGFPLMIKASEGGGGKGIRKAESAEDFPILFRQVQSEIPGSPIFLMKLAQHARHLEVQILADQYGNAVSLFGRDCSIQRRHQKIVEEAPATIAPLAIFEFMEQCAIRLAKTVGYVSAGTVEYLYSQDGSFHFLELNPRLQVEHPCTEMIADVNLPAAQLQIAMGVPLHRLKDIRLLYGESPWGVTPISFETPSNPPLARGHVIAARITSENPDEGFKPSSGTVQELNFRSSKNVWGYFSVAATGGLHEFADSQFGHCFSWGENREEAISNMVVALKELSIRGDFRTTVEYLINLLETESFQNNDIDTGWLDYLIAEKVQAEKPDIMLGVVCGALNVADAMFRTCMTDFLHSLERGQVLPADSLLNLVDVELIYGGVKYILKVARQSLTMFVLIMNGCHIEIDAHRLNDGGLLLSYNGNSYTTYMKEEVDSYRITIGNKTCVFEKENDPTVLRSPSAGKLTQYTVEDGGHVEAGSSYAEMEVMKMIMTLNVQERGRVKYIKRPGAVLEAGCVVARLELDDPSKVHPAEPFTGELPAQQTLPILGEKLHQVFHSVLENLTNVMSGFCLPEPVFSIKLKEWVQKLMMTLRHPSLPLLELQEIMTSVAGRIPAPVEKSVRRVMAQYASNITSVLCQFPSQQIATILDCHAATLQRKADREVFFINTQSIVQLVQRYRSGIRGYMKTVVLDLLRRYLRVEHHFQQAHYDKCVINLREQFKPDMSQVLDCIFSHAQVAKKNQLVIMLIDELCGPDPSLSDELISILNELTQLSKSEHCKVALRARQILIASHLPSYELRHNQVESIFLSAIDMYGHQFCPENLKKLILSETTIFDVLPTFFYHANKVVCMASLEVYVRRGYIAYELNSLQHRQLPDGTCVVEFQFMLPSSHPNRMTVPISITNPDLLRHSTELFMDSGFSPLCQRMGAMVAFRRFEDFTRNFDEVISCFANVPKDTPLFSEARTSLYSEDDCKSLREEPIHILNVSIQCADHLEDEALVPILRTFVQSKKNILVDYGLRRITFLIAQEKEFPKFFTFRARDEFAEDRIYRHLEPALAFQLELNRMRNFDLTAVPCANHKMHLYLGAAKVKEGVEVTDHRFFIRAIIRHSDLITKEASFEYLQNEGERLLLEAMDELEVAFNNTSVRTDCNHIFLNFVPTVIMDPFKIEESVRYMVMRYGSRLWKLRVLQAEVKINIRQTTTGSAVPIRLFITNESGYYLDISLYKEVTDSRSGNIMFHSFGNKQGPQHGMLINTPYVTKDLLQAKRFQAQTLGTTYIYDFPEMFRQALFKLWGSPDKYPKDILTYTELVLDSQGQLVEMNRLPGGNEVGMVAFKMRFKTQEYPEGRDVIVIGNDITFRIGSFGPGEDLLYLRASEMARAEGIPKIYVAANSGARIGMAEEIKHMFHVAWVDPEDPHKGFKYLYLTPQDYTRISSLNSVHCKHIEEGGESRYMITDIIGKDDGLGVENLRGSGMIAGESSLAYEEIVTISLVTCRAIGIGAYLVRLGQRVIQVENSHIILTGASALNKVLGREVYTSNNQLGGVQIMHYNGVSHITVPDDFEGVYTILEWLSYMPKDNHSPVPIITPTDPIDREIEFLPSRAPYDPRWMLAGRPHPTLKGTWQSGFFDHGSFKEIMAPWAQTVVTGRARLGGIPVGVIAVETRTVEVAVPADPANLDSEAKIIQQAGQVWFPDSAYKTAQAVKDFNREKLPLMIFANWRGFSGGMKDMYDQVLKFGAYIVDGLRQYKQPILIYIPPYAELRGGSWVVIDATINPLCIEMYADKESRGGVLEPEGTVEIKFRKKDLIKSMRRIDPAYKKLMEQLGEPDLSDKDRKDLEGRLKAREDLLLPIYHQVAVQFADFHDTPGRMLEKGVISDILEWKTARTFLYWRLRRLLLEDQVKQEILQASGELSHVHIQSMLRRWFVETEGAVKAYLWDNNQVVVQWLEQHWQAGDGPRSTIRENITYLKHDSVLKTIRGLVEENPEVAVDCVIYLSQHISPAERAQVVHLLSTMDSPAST

[1] = tested on: C. parapsilosis ATCC 22019; test: Anti-Fungal Activity Assay (broth microtiter MIC), C. parapsilosis; type: cell-based, Candida parapsilosis; conditions: Lodderomyces parapsilosis, ATCC22019, 48 h, 3 replicates; MIC recorded at 48 h; read-out: MIC C. parapsilosis ATCC 22019
Experimental: as §1

C. albicans ATCC 90028 = test: Anti-Fungal Activity Assay (broth microtiter MIC), C. albicans; type: cell-based, Candida albicans; conditions: Candida albicans, ATCC90028, 48 h, 3 replicates; MIC recorded at 48 h; read-out: MIC C. albicans ATCC 90028
Experimental: as §1

Structure (SMILES)	MIC (C. krusei ATCC 6258) [µg/mL]	IC50 (Human ACC2) [nM]	MIC [1] [µg/mL]	MIC (C. albicans ATCC 90028) [µg/mL]
COc1ccc(F)cc1[C@H](Cn1c(=O)n(C2CCCNC2=O)c(=O)c2c(C)c(-n3nccn3)sc21)OC1CCOCC1 (stereo partly drawn) [Compound I-21, 1-((R)-2-(5-fluoro-2-methoxyphenyl)-2-((tetrahydro-2H-pyran-4-yl)oxy)ethyl)-5-methyl-3-(2-oxopiperidin-3-yl)-6-(2H-1,2,3-triazol-2-yl)thieno[2,3-d]pyrimidine-2,4(1H,3H)-dione]	0.25 to 1 (≈ 0.418 to 1.67 µM)	2 to 10	1.1 to 2 (≈ 1.84 to 3.34 µM)	0.25 to 1 (≈ 0.418 to 1.67 µM)
COc1ccc(F)cc1[C@H](Cn1c(=O)n(C2CCCN(C(C)C)C2=O)c(=O)c2c(C)c(-n3nccn3)sc21)OC1CCOCC1 (stereo partly drawn) [Compound I-24]	0.25 to 1 (≈ 0.39 to 1.56 µM)	10 to 100	0.25 to 1 (≈ 0.39 to 1.56 µM)	0.25 to 1 (≈ 0.39 to 1.56 µM)
COc1ccc(F)cc1[C@H](Cn1c(=O)n([C@H]2CCNC2=O)c(=O)c2c(C)c(-n3nccn3)sc21)OC1CCOCC1 [Compound I-33, 1-((R)-2-(5-fluoro-2-methoxyphenyl)-2-((tetrahydro-2H-pyran-4-yl)oxy)ethyl)-5-methyl-3-((S)-2-oxopyrrolidin-3-yl)-6-(2H-1,2,3-triazol-2-yl)thieno[2,3-d]pyrimidine-2,4(1H,3H)-dione]	1.1 to 2 (≈ 1.88 to 3.42 µM)	2 to 10	2.1 to 4 (≈ 3.59 to 6.84 µM)	2.1 to 4 (≈ 3.59 to 6.84 µM)
COc1ccc(F)cc1[C@H](Cn1c(=O)n([C@@H]2CCCNC2=O)c(=O)c2c(C)c(-n3nccn3)sc21)OC1CCOCC1 [Compound I-38, 1-((R)-2-(5-fluoro-2-methoxyphenyl)-2-((tetrahydro-2H-pyran-4-yl)oxy)ethyl)-5-methyl-3-((R)-2-oxopiperidin-3-yl)-6-(2H-1,2,3-triazol-2-yl)thieno[2,3-d]pyrimidine-2,4(1H,3H)-dione]	2.1 to 4 (≈ 3.51 to 6.68 µM)	10 to 100	2.1 to 4 (≈ 3.51 to 6.68 µM)	2.1 to 4 (≈ 3.51 to 6.68 µM)
COc1ccccc1[C@H](Cn1c(=O)n(C2CCCNC2=O)c(=O)c2c(C)c(-c3ncco3)sc21)OC1CCOCC1 (stereo partly drawn) [Compound I-49, 1-((R)-2-(2-methoxyphenyl)-2-((tetrahydro-2H-pyran-4-yl)oxy)ethyl)-5-methyl-6-(oxazol-2-yl)-3-(2-oxopiperidin-3-yl)thieno[2,3-d]pyrimidine-2,4(1H,3H)-dione]	2.1 to 4 (≈ 3.62 to 6.89 µM)	10 to 100	2.1 to 4 (≈ 3.62 to 6.89 µM)	1.1 to 2 (≈ 1.89 to 3.44 µM)
COc1ccccc1[C@H](Cn1c(=O)n(C2CCCN(C)C2=O)c(=O)c2c(C)c(-c3ncco3)sc21)OC1CCOCC1 (stereo partly drawn) [Compound I-50, 1-((R)-2-(2-methoxyphenyl)-2-((tetrahydro-2H-pyran-4-yl)oxy)ethyl)-5-methyl-3-(1-methyl-2-oxopiperidin-3-yl)-6-(oxazol-2-yl)thieno[2,3-d]pyrimidine-2,4(1H,3H)-dione]	2.1 to 4 (≈ 3.53 to 6.73 µM)	10 to 100	2.1 to 4 (≈ 3.53 to 6.73 µM)	2.1 to 4 (≈ 3.53 to 6.73 µM)
COc1ccc(F)cc1[C@H](Cn1c(=O)n(C2CCCNC2=O)c(=O)c2c(C)c(-c3ncco3)sc21)OC1CCOCC1 (stereo partly drawn) [Compound I-51, 1-((R)-2-(5-fluoro-2-methoxyphenyl)-2-((tetrahydro-2H-pyran-4-yl)oxy)ethyl)-5-methyl-6-(oxazol-2-yl)-3-(2-oxopiperidin-3-yl)thieno[2,3-d]pyrimidine-2,4(1H,3H)-dione]	2.1 to 4 (≈ 3.51 to 6.68 µM)	10 to 100	2.1 to 4 (≈ 3.51 to 6.68 µM)	1.1 to 2 (≈ 1.84 to 3.34 µM)
COc1ccc(F)cc1[C@H](Cn1c(=O)n(C2CCCN(C)C2=O)c(=O)c2c(C)c(-c3ncco3)sc21)OC1CCOCC1 (stereo partly drawn) [Compound I-52, 1-((R)-2-(5-fluoro-2-methoxyphenyl)-2-((tetrahydro-2H-pyran-4-yl)oxy)ethyl)-5-methyl-3-(I-methyl-2-oxopiperidin-3-yl)-6-(oxazol-2-yl)thieno[2,3-d]pyrimidine-2,4(1H,3H)-dione]	1.1 to 2 (≈ 1.8 to 3.26 µM)	10 to 100	2.1 to 4 (≈ 3.43 to 6.53 µM)	2.1 to 4 (≈ 3.43 to 6.53 µM)
COc1ccccc1[C@H](Cn1c(=O)n(C2CCNC2=O)c(=O)c2c(C)c(-c3ncco3)sc21)OC1CCOCC1 (stereo partly drawn) [Compound I-56, 1-((R)-2-(2-methoxyphenyl)-2-((tetrahydro-2H-pyran-4-yl)oxy)ethyl)-5-methyl-6-(oxazol-2-yl)-3-(2-oxopyrrolidin-3-yl)thieno[2,3-d]pyrimidine-2,4(1H,3H)-dione]	2.1 to 4 (≈ 3.71 to 7.06 µM)	2 to 10	2.1 to 4 (≈ 3.71 to 7.06 µM)	2.1 to 4 (≈ 3.71 to 7.06 µM)
COc1ccccc1[C@H](Cn1c(=O)n(C2CCN(C)C2=O)c(=O)c2c(C)c(-c3ncco3)sc21)OC1CCOCC1 (stereo partly drawn) [Compound I-57, 1-((R)-2-(2-methoxyphenyl)-2-((tetrahydro-2H-pyran-4-yl)oxy)ethyl)-5-methyl-3-(1-methyl-2-oxopyrrolidin-3-yl)-6-(oxazol-2-yl)thieno[2,3-d]pyrimidine-2,4(1H,3H)-dione]	1.1 to 2 (≈ 1.89 to 3.44 µM)	10 to 100	2.1 to 4 (≈ 3.62 to 6.89 µM)	1.1 to 2 (≈ 1.89 to 3.44 µM)
COc1ccc(F)cc1[C@H](Cn1c(=O)n(C2CCNC2=O)c(=O)c2c(C)c(-c3ncco3)sc21)OC1CCOCC1 (stereo partly drawn) [Compound I-58, 1-((R)-2-(5-fluoro-2-methoxyphenyl)-2-((tetrahydro-2H-pyran-4-yl)oxy)ethyl)-5-methyl-6-(oxazol-2-yl)-3-(2-oxopyrrolidin-3-yl)thieno[2,3-d]pyrimidine-2,4(1H,3H)-dione]	2.1 to 4 (≈ 3.59 to 6.84 µM)	2 to 10	2.1 to 4 (≈ 3.59 to 6.84 µM)	2.1 to 4 (≈ 3.59 to 6.84 µM)
COc1ccc(F)cc1[C@H](Cn1c(=O)n(C2CCN(C)C2=O)c(=O)c2c(C)c(-c3ncco3)sc21)OC1CCOCC1 (stereo partly drawn) [Compound I-59, 1-((R)-2-(5-fluoro-2-methoxyphenyl)-2-((tetrahydro-2H-pyran-4-yl)oxy)ethyl)-5-methyl-3-(1-methyl-2-oxopyrrolidin-3-yl)-6-(oxazol-2-yl)thieno[2,3-d]pyrimidine-2,4(1H,3H)-dione]	0.25 to 1 (≈ 0.418 to 1.67 µM)	2 to 10	2.1 to 4 (≈ 3.51 to 6.68 µM)	1.1 to 2 (≈ 1.84 to 3.34 µM)
COc1ccc(F)cc1[C@H](Cn1c(=O)n([C@H]2CCCNC2=O)c(=O)c2c(C)c(-c3ncco3)sc21)OCCO [Compound I-62, 1-((R)-2-(5-fluoro-2-methoxyphenyl)-2-(2-hydroxy-ethoxy)ethyl)-5-methyl-6-(oxazol-2-yl)-3-((S)-2-oxopiperidin-3-yl)thieno[2,3-d]pyrimidine-2,4(1H,3H)-dione]	2.1 to 4 (≈ 3.76 to 7.16 µM)	10 to 100	2.1 to 4 (≈ 3.76 to 7.16 µM)	2.1 to 4 (≈ 3.76 to 7.16 µM)
COc1ccc(F)cc1[C@H](Cn1c(=O)n([C@H]2CCCN(C)C2=O)c(=O)c2c(C)c(-c3ncco3)sc21)OCCO [Compound I-63, 1-((R)-2-(5-fluoro-2-methoxyphenyl)-2-(2-hydroxy-ethoxy)ethyl)-5-methyl-3-((S)-1-methyl-2-oxopiperidin-3-yl)-6-(oxazol-2-yl)thieno[2,3-d]pyrimidine-2,4(1H,3H)-dione]	2.1 to 4 (≈ 3.67 to 6.99 µM)	10 to 100	2.1 to 4 (≈ 3.67 to 6.99 µM)	2.1 to 4 (≈ 3.67 to 6.99 µM)
COc1ccc(F)cc1[C@H](Cn1c(=O)n([C@@H]2CCCNC2=O)c(=O)c2c(C)c(-c3ncco3)sc21)OCCO [Compound I-64, 1-((R)-2-(5-fluoro-2-methoxyphenyl)-2-(2-hydroxy-ethoxy)ethyl)-5-methyl-6-(oxazol-2-yl)-3-((R)-2-oxopiperidin-3-yl)thieno[2,3-d]pyrimidine-2,4(1H,3H)-dione]	2.1 to 4 (≈ 3.76 to 7.16 µM)	10 to 100	2.1 to 4 (≈ 3.76 to 7.16 µM)	2.1 to 4 (≈ 3.76 to 7.16 µM)
COc1ccc(F)cc1[C@H](Cn1c(=O)n([C@@H]2CCCN(C)C2=O)c(=O)c2c(C)c(-c3ncco3)sc21)OCCO [Compound I-65, 1-((R)-2-(5-fluoro-2-methoxyphenyl)-2-(2-hydroxy-ethoxy)ethyl)-5-methyl-3-((R)-1-methyl-2-oxopiperidin-3-yl)-6-(oxazol-2-yl)thieno[2,3-d]pyrimidine-2,4(1H,3H)-dione]	2.1 to 4 (≈ 3.67 to 6.99 µM)	10 to 100	2.1 to 4 (≈ 3.67 to 6.99 µM)	2.1 to 4 (≈ 3.67 to 6.99 µM)
COc1ccc(F)cc1[C@H](Cn1c(=O)n([C@]2(C)CCC(=O)NC2)c(=O)c2c(C)c(-n3nccn3)sc21)OCCO [Compound I-133, 1-((R)-2-(5-fluoro-2-methoxyphenyl)-2-(2-hydroxy-ethoxy)ethyl)-5-methyl-3-((R)-3-methyl-6-oxopiperidin-3-yl)-6-(2H-1,2,3-triazol-2-yl)thieno[2,3-d]pyrimidine-2,4(1H,3H)-dione]	2.1 to 4 (≈ 3.67 to 6.99 µM)	10 to 100	2.1 to 4 (≈ 3.67 to 6.99 µM)	2.1 to 4 (≈ 3.67 to 6.99 µM)
COc1ccc(F)cc1[C@H](Cn1c(=O)n([C@@]2(C)CCC(=O)NC2)c(=O)c2c(C)c(-n3nccn3)sc21)OCCO [Compound I-135, 1-((R)-2-(5-fluoro-2-methoxyphenyl)-2-(2-hydroxy-ethoxy)ethyl)-5-methyl-3-((S)-3-methyl-6-oxopiperidin-3-yl)-6-(2H-1,2,3-triazol-2-yl)thieno[2,3-d]pyrimidine-2,4(1H,3H)-dione]	2.1 to 4 (≈ 3.67 to 6.99 µM)	10 to 100	2.1 to 4 (≈ 3.67 to 6.99 µM)	2.1 to 4 (≈ 3.67 to 6.99 µM)
